Molecules are shown by their SMILES. Where a name gives a salt, the structure may show the parent alone.

The test system of one experiment is γ-secretase; production of amyloid beta protein Aβ(1-42). Nature of the experiment: Cell-Based γ-Secretase Assay with ELISA Readout. To be noted: human WT-APP overexpressing CHO cells; footnote 8: single determination; read-out: Aβ 42B IC50 (nM) (Geometric Mean of 2-8 Determinations). On the procedure: The ability of compounds to modulate production of amyloid beta protein A6(1-42) was determined using human WT-APP overexpressing CHO cells. Cells were plated at 22,000 cells/100 μL well in 96 well tissue culture treated, clear plates (Falcon) in DMEM/F12 based medium and incubated for 24 hours at 37° C. Compounds for testing were diluted in 100% DMSO to achieve an eleven points, half log, dose response for IC50 determinations. Compounds were added in fresh medium to achieve 1% final DMSO. Appropriate vehicle and inhibitor controls were added to obtain maximum and minimum inhibition values for the assay before the plates were incubated for about 24 hours at 37° C.
Coating of ELISA assay plates was initiated by addition of 50 μL/well of an in-house Aβ(1-42) specific antibody at (4 μg/mL) in 0.1 M NaHCO3 (pH 9.0) into black 384-well Maxisorp® plates (Nunc) and incubated overnight at 4° C. The capture antibody was then aspirated from the ELISA assay plates and 100 μL/well of Blocking Buffer (Dulbecco's PBS, 1.5% BSA (Sigma A7030)) added. Ambient temperature incubation was allowed to proceed for a minimum of two hours before washing 2×100 μL with Wash Buffer (Dulbecco's PBS, 0.05% Tween 20). Assay Buffer (Dulbecco's PBS, 1.0% BSA (Sigma A7030), 0.05% Tween 20) 20 μL/well was then added.
After incubation overnight at 37° C., 5% CO2, 40 μL (in duplicate) of experimental conditioned media were transferred into wells of the blocked ELISA plates containing the capture antibody, followed by overnight incubation at 4° C.
After overnight incubation of the ELISA assay plates at 4° C., unbound Aβ peptides were removed thorough (4×100 μL) washes with Wash Buffer. Europium (Eu) labeled (custom labeled, Perkin Elmer) Aβ(1-16) 6e10 Monoclonal Antibody (Covance #SIG-39320 was added, (50 μL/well Eu-6e10 @ 1:5000, 20 uM EDTA) in Assay Buffer. Incubation at ambient temperature for a minimum of 2 hours was followed by (4×100 μL) washes with Wash Buffer, before 50 μL/well of Delfia Enhancement Solution (PerkinElmer) was added. Following a one hour ambient temperature incubation, the plates were read on an EnVision plate reader (PerkinElmer) using standard DELFIA TRF settings. Data analysis including inhibitory IC50 determination was performed using nonlinear regression fit analysis (in-house software) and the appropriate plate mean values for the maximum and minimum inhibition controls.
Background: An ELISA detects its analyte on a solid surface through an enzyme-linked reagent.
Regarding `O=C(O)C[C@@H]1CC[C@@H](N(Cc2ccccc2F)CC2CCCC2)[C@H](c2ccc(C(F)(F)F)cc2)C1` [Example 27, {(1R,3S,4R)-4-[(cyclopentyl-methyl)(2-fluorobenzyl)amino]-3-[4-(trifluoromethyl)phenyl]cyclohexyl} acetic acid], the 50% inhibitory concentration (IC50) (as a rule, the midpoint of a concentration-inhibition curve) stood at 155 nM. On the same count and under the same terms, with `O=C(O)C[C@@H]1CC[C@@H](N(Cc2ccc(F)cc2)CC2CCCC2)[C@H](c2ccc(C(F)(F)F)cc2)C1` [Example 26, {(1R,3S,4R)-4-[(cyclopentyl-methyl)(4-fluorobenzyl)amino]-3-[4-(trifluoromethyl)phenyl]cyclohexyl} acetic acid] the figure was 190 nM. For `CC(C)CCN(CCC(F)(F)F)[C@@H]1CC[C@@H](CC(=O)O)C[C@H]1c1ccc(C(F)(F)F)nc1` [Example 12, {(1R,3S,4R)-4-[(3-methylbutyl) (3,3,3-trifluoro-propyl)amino]-3-[6-(trifluoromethyl)pyridin-3-yl]cyclohexyl}acetic acid], the IC50 stood at 1370 nM. Turning to `CC(C)CCN(CCC(F)(F)F)[C@@H]1CO[C@@H](CC(=O)O)C[C@H]1c1ccc(C(F)(F)F)cc1` [Example 10, 2-{(2R,4S,5S)-5-[(3-methylbutyl)(3,3,3-trifluoropropyl)amino]-4-[4-(trifluoromethyl)phenyl]tetrahydro-2H-pyran-2-yl} acetic acid, hydrochloride salt], the concentration for half-maximal inhibition (IC50) is 4770 nM. For the compound `CC(C)CCN(CCC(F)(F)F)[C@@H]1CC[C@@H](CC(=O)O)C[C@H]1c1ccc(C(F)(F)F)cc1` (racemic) [Example 9, {(1R,3S,4R)/ (1S,3R,4S)-4-[(3-methylbutyl) (3,3,3-trifluoropropyl)amino]-3-[4-(trifluoromethyl)phenyl]cyclohexyl} acetic acid, hydrochloride salt], the IC50 amounted to 618 nM. Consider `O=C(O)C[C@@H]1CC[C@@H](N(CC2CCCC2)CC2CCCC2)[C@H](c2ccc(F)cc2)C1` [Example 18, [(1R,3S,4R)-4-[bis(cyclopentyl-methyl)amino]-3-(4-fluorophenyl)cyclohexyl]acetic acid], for which the IC50 is 2630 nM. On the same count and under the same terms, the figure for `CC(C)CCN(CCC(F)(F)F)[C@@H]1CC[C@@H](CC(=O)O)C[C@H]1c1ccc(C(F)(F)F)cc1` [Example 11, {(1R,3S,4R)-4-[(3-methylbutyl) (3,3,3-trifluoropropyl)amino]-3-[4-(trifluoromethyl)phenyl]cyclohexyl} acetic acid, hydrochloride salt] is 470 nM.

Staying with this experiment, now noted: human WT-APP overexpressing CHO cells; geometric mean of 2-4 determinations unless otherwise indicated (footnote 10: 6-8; footnote 14: single determination); read-out: Aβ 42B IC50.
In the case of `CC(C)CN(CC1=CCC2CC1C2(C)C)[C@@H]1CC[C@@H](CC(=O)O)C[C@H]1c1ccc(C(F)(F)F)cc1` (stereo partly drawn) [Example 63, {(1R,3S,4R)-4-{[(6,6-dimethylbicyclo[3.1.1]hept-2-en-2-yl)methyl](isobutyl)amino}-3-[4-(trifluoromethyl)phenyl]cyclohexyl}acetic acid, trifluoroacetate salt], the IC50 was 336 nM. With `CCOc1ccc(CN(CC(C)C)[C@@H]2CC[C@@H](CC(=O)O)C[C@H]2c2ccc(C(F)(F)F)cc2)cc1` [Example 57, {(1R,3S,4R)-4-[(4-ethoxybenzyl)(isobutyl)amino]-3-[4-(trifluoromethyl)phenyl]cyclohexyl}acetic acid, trifluoroacetate salt], the IC50 is 171 nM.

Consider `O=C(O)C[C@@H]1CC[C@@H](N(CCC(F)(F)F)CC2CCCC2)[C@H](c2ccc(C(F)(F)F)cc2)C1` [Example 45, {(1R,3S,4R)-4-[(cyclopentylmethyl)(3,3,3-trifluoropropyl)amino]-3-[4-(trifluoromethyl)phenyl]cyclohexyl}acetic acid, trifluoroacetate salt], for which the IC50 turned out to be 484 nM. `CC(C)CCN(C1CCOCC1)[C@@H]1CC[C@@H](CC(=O)O)C[C@H]1c1ccc(C(F)(F)F)cc1` [Example 30, {(1R,3S,4R)-4-[(3-methylbutyl)(tetrahydro-2H-pyran-4-yl)amino]-3-[4-(trifluoromethyl)phenyl]cyclohexyl}acetic acid, ammonium salt]: the IC50 is 7310 nM. Still for that read-out and setting: the figure for `CC(C)CN(CC1CCCC1)[C@@H]1CC[C@@H](CC(=O)O)C[C@H]1c1ccc(C(F)(F)F)cc1` [Example 44, {(1R,3S,4R)-4-[(cyclopentylmethyl)(isobutyl)amino]-3-[4-(trifluoromethyl)phenyl]cyclohexyl}acetic acid, trifluoroacetic salt] is 318 nM.

As to `O=C(O)C[C@@H]1CC[C@@H](N(CC2CCCC2)CC2(F)CCCCC2)[C@H](c2ccc(C(F)(F)F)cc2)C1` [Example 39, {(1R,3S,4R)-4-{(cyclopentylmethyl)[(1-fluorocyclohexyl)methyl]amino}-3-[4-(trifluoromethyl)phenyl]cyclohexyl}acetic acid, ammonium salt], the IC50 was found to be 109 nM. For the compound `O=C(O)C[C@@H]1CC[C@@H](N(CC2CCCC2)CC2CCCC2)[C@H](c2cccc(Cl)c2)O1` [Example 47, [(2S,5R,6S)-5-[bis(cyclopentylmethyl)amino]-6-(3-chlorophenyl)tetrahydro-2H-pyran-2-yl]acetic acid, ammonium salt], the IC50 is 1840 nM. Still for that read-out and setting: with `CC(C)CN(CC1(F)CCCCC1)[C@@H]1CC[C@@H](CC(=O)O)C[C@H]1c1ccc(C(F)(F)F)cc1` [Example 52, {(1R,3S,4R)-4-{[(1-fluorocyclohexyl)methyl] (isobutyl)amino}-3-[4-(trifluoromethyl)phenyl]cyclohexyl}acetic acid, trifluoroacetate salt] the figure was 190 nM; with `N#Cc1ccc([C@@H]2O[C@H](CC(=O)O)CC[C@H]2N(CC2CCCC2)CC2CCCC2)cc1` [Example 46, [(2S,5R,6S)-5-[bis(cyclopentylmethyl)amino]-6-(4-cyanophenyl)tetrahydro-2H-pyran-2-yl]acetic acid, ammonium salt], 2550 nM. Consider `O=C(O)C[C@@H]1CC[C@@H](N(CCC(F)(F)F)CC2CCCC2)[C@H](c2ccc(Cl)cc2)C1` [Example 48, {(1R,3S,4R)-3-(4-chlorophenyl)-4-[(cyclopentylmethyl)(3,3,3-trifluoropropyl)amino]cyclohexyl}acetic acid, trifluoroacetate salt], for which the IC50 stood at 441 nM. Same read-out and setting: with `CCCc1nscc1CN(CC(C)C)[C@@H]1CC[C@@H](CC(=O)O)C[C@H]1c1ccc(C(F)(F)F)cc1` [Example 59, {(1R,3S,4R)-4-{isobutyl[(3-propylisothiazol-4-yl)methyl]amino}-3-[4-(trifluoromethyl)phenyl]cyclohexyl}acetic acid, trifluoroacetate salt] the figure was 349 nM.

With `O=C(O)C[C@@H]1CC[C@@H](N(Cc2ccc3nonc3c2)CC2(F)CCCCC2)[C@H](c2ccc(C(F)(F)F)cc2)C1` [Example 65, {(1R,3S,4R)-4-{(2,1,3-benzoxadiazol-5-ylmethyl)[(1-fluorocyclohexyl)methyl]amino}-3-[4-(trifluoromethyl)phenyl]cyclohexyl}acetic acid, trifluoroacetate salt], the IC50 amounted to 509 nM. For the compound `CCC(CC)CN(CC1CCCC1)[C@@H]1CC[C@@H](CC(=O)O)C[C@H]1c1ccc(Cl)cc1` [Example 49, {(1R,3S,4R)-3-(4-chlorophenyl)-4-[(cyclopentylmethyl)(2-ethylbutyl)amino]cyclohexyl} acetic acid, ammonium salt], the IC50 was found to be 477 nM. Regarding `CC(C)(C)CN(CC1CCCC1)[C@@H]1CC[C@@H](CC(=O)O)C[C@H]1c1ccc(C(F)(F)F)cc1` [Example 36, {(1R,3S,4R)-4-[(cyclopentylmethyl)(2,2-dimethylpropyl)amino]-3-[4-(trifluoromethyl)phenyl]cyclohexyl}acetic acid, ammonium salt], the IC50 is 349 nM. For `O=C(O)C[C@@H]1CC[C@@H](N(Cc2ccc3c(c2)CCO3)CC2(F)CCCCC2)[C@H](c2ccc(C(F)(F)F)cc2)C1` [Example 61, {(1R,3S,4R)-4-{(2,3-dihydro-1-benzofuran-5-ylmethyl)[(1-fluorocyclohexyl)methyl]amino}-3-[4-(trifluoromethyl)phenyl]cyclohexyl}acetic acid, trifluoroacetate salt], the half-maximal inhibitory concentration (IC50) stood at 607 nM.

The experiment is the same for the next values; noted with them: human WT-APP overexpressing CHO cells; geometric mean of 2 determinations unless otherwise indicated (footnote 2: 6-14 determinations); read-out: Aβ 42B IC50.
For the compound `CC(C)CCN(CCC(C)C)[C@@H]1CC[C@@H]([C@@H](C)C(=O)O)C[C@H]1c1ccc(C(F)(F)F)cc1` (single isomer, unassigned) [Example 7], the half-inhibitory concentration (IC50) came to 1750 nM.
